The NIST ThermoML archive (doi:10.1016/j.jct.2012.11.011)
± gives the expanded uncertainty stated by the source.

Assay: xn = mol fraction of the nth substance listed
Conditions: Liquid, Vibrating tube method

SMILES: CCOC(=O)OCC [diethyl carbonate] + CCCCCCCCCC
- mass density (288.15 K, 100 kPa, x1 = 0.0538): 740.8 ± 0.3 kg/m3
- mass density (288.15 K, 100 kPa, x1 = 0.1716): 759.4 ± 0.3 kg/m3
- mass density (288.15 K, 100 kPa, x1 = 0.2151): 766.3 ± 0.3 kg/m3
- mass density (288.15 K, 100 kPa, x1 = 0.3257): 786.5 ± 0.3 kg/m3
- mass density (288.15 K, 100 kPa, x1 = 0.5032): 821.3 ± 0.3 kg/m3
- mass density (288.15 K, 100 kPa, x1 = 0.5482): 832.2 ± 0.3 kg/m3
- mass density (288.15 K, 100 kPa, x1 = 0.7985): 903.2 ± 0.3 kg/m3
- mass density (288.15 K, 100 kPa, x1 = 0.8989): 937.5 ± 0.3 kg/m3
- mass density (288.15 K, 100 kPa, x1 = 0.9487): 956.9 ± 0.3 kg/m3
- mass density (288.15 K, 5000 kPa, x1 = 0.0538): 744.5 ± 0.3 kg/m3
- mass density (288.15 K, 5000 kPa, x1 = 0.1716): 763.3 ± 0.3 kg/m3
- mass density (288.15 K, 5000 kPa, x1 = 0.2151): 770.2 ± 0.3 kg/m3
- mass density (288.15 K, 5000 kPa, x1 = 0.3257): 790.5 ± 0.3 kg/m3
- mass density (288.15 K, 5000 kPa, x1 = 0.5032): 826.7 ± 0.3 kg/m3
- mass density (288.15 K, 5000 kPa, x1 = 0.5482): 836.6 ± 0.3 kg/m3
- mass density (288.15 K, 5000 kPa, x1 = 0.7985): 907.4 ± 0.3 kg/m3
- mass density (288.15 K, 5000 kPa, x1 = 0.8989): 943.6 ± 0.3 kg/m3
- mass density (288.15 K, 5000 kPa, x1 = 0.9487): 963 ± 0.3 kg/m3
- mass density (288.15 K, 10000 kPa, x1 = 0.0538): 748 ± 0.4 kg/m3
- mass density (288.15 K, 10000 kPa, x1 = 0.1716): 766.8 ± 0.4 kg/m3
- mass density (288.15 K, 10000 kPa, x1 = 0.2151): 773.7 ± 0.4 kg/m3
- mass density (288.15 K, 10000 kPa, x1 = 0.3257): 794.3 ± 0.3 kg/m3
- mass density (288.15 K, 10000 kPa, x1 = 0.5032): 830.7 ± 0.3 kg/m3
- mass density (288.15 K, 10000 kPa, x1 = 0.5482): 840.6 ± 0.3 kg/m3
- mass density (288.15 K, 10000 kPa, x1 = 0.7985): 911.5 ± 0.3 kg/m3
- mass density (288.15 K, 10000 kPa, x1 = 0.8989): 947.7 ± 0.3 kg/m3
- mass density (288.15 K, 10000 kPa, x1 = 0.9487): 967.1 ± 0.3 kg/m3
- mass density (288.15 K, 20000 kPa, x1 = 0.0538): 754.6 ± 0.4 kg/m3
- mass density (288.15 K, 20000 kPa, x1 = 0.1716): 773.6 ± 0.4 kg/m3
- mass density (288.15 K, 20000 kPa, x1 = 0.2151): 780.5 ± 0.4 kg/m3
- mass density (288.15 K, 20000 kPa, x1 = 0.3257): 801.2 ± 0.4 kg/m3
- mass density (288.15 K, 20000 kPa, x1 = 0.5032): 837.8 ± 0.4 kg/m3
- mass density (288.15 K, 20000 kPa, x1 = 0.5482): 847.8 ± 0.3 kg/m3
- mass density (288.15 K, 20000 kPa, x1 = 0.7985): 919 ± 0.3 kg/m3
- mass density (288.15 K, 20000 kPa, x1 = 0.8989): 955.4 ± 0.3 kg/m3
- mass density (288.15 K, 20000 kPa, x1 = 0.9487): 974.8 ± 0.3 kg/m3
- mass density (288.15 K, 30000 kPa, x1 = 0.0538): 760.6 ± 0.5 kg/m3
- mass density (288.15 K, 30000 kPa, x1 = 0.1716): 780.9 ± 0.5 kg/m3
- mass density (288.15 K, 30000 kPa, x1 = 0.2151): 786.9 ± 0.5 kg/m3
- mass density (288.15 K, 30000 kPa, x1 = 0.3257): 807.5 ± 0.4 kg/m3
- mass density (288.15 K, 30000 kPa, x1 = 0.5032): 844.6 ± 0.4 kg/m3
- mass density (288.15 K, 30000 kPa, x1 = 0.5482): 854.5 ± 0.4 kg/m3
- mass density (288.15 K, 30000 kPa, x1 = 0.7985): 926 ± 0.3 kg/m3
- mass density (288.15 K, 30000 kPa, x1 = 0.8989): 962.6 ± 0.3 kg/m3
- mass density (288.15 K, 30000 kPa, x1 = 0.9487): 981.9 ± 0.3 kg/m3
- mass density (288.15 K, 40000 kPa, x1 = 0.0538): 766.4 ± 0.6 kg/m3
- mass density (288.15 K, 40000 kPa, x1 = 0.1716): 785.6 ± 0.6 kg/m3
- mass density (288.15 K, 40000 kPa, x1 = 0.2151): 792.8 ± 0.5 kg/m3
- mass density (288.15 K, 40000 kPa, x1 = 0.3257): 813.8 ± 0.5 kg/m3
- mass density (288.15 K, 40000 kPa, x1 = 0.5032): 850.9 ± 0.4 kg/m3
- mass density (288.15 K, 40000 kPa, x1 = 0.5482): 860.9 ± 0.4 kg/m3
- mass density (288.15 K, 40000 kPa, x1 = 0.7985): 932.8 ± 0.3 kg/m3
- mass density (288.15 K, 40000 kPa, x1 = 0.8989): 969.5 ± 0.3 kg/m3
- mass density (288.15 K, 40000 kPa, x1 = 0.9487): 988.9 ± 0.3 kg/m3
- mass density (298.15 K, 100 kPa, x1 = 0.0538): 733.1 ± 0.3 kg/m3
- mass density (298.15 K, 100 kPa, x1 = 0.1716): 751.2 ± 0.3 kg/m3
- mass density (298.15 K, 100 kPa, x1 = 0.2151): 758 ± 0.3 kg/m3
- mass density (298.15 K, 100 kPa, x1 = 0.3257): 777.9 ± 0.3 kg/m3
- mass density (298.15 K, 100 kPa, x1 = 0.5032): 813.5 ± 0.3 kg/m3
- mass density (298.15 K, 100 kPa, x1 = 0.5482): 823.1 ± 0.3 kg/m3
- mass density (298.15 K, 100 kPa, x1 = 0.7985): 892.8 ± 0.3 kg/m3
- mass density (298.15 K, 100 kPa, x1 = 0.8989): 928.3 ± 0.3 kg/m3
- mass density (298.15 K, 100 kPa, x1 = 0.9487): 947.6 ± 0.3 kg/m3
- mass density (298.15 K, 5000 kPa, x1 = 0.0538): 737.6 ± 0.3 kg/m3
- mass density (298.15 K, 5000 kPa, x1 = 0.1716): 755.8 ± 0.3 kg/m3
- mass density (298.15 K, 5000 kPa, x1 = 0.2151): 762.6 ± 0.3 kg/m3
- mass density (298.15 K, 5000 kPa, x1 = 0.3257): 782.6 ± 0.3 kg/m3
- mass density (298.15 K, 5000 kPa, x1 = 0.5032): 818.2 ± 0.3 kg/m3
- mass density (298.15 K, 5000 kPa, x1 = 0.5482): 827.8 ± 0.3 kg/m3
- mass density (298.15 K, 5000 kPa, x1 = 0.7985): 897.7 ± 0.3 kg/m3
- mass density (298.15 K, 5000 kPa, x1 = 0.8989): 933.5 ± 0.3 kg/m3
- mass density (298.15 K, 5000 kPa, x1 = 0.9487): 952.7 ± 0.3 kg/m3
- mass density (298.15 K, 10000 kPa, x1 = 0.0538): 740.7 ± 0.4 kg/m3
- mass density (298.15 K, 10000 kPa, x1 = 0.1716): 759.1 ± 0.4 kg/m3
- mass density (298.15 K, 10000 kPa, x1 = 0.2151): 766 ± 0.4 kg/m3
- mass density (298.15 K, 10000 kPa, x1 = 0.3257): 786.1 ± 0.3 kg/m3
- mass density (298.15 K, 10000 kPa, x1 = 0.5032): 821.9 ± 0.3 kg/m3
- mass density (298.15 K, 10000 kPa, x1 = 0.5482): 831.7 ± 0.3 kg/m3
- mass density (298.15 K, 10000 kPa, x1 = 0.7985): 901.5 ± 0.3 kg/m3
- mass density (298.15 K, 10000 kPa, x1 = 0.8989): 937.5 ± 0.3 kg/m3
- mass density (298.15 K, 10000 kPa, x1 = 0.9487): 956.6 ± 0.3 kg/m3
